Test results taken from publication PMC5802399 (Nature, 2017).
Where two headings read alike, the source gives them in different places. Bridge positions count the residues as written; N and C are the ends. Ends that are not written are not given here. Peptide text beside a SMILES is read from it.

What was measured:
[1] = test system: group-1 influenza strains (H1N1, H5N1 and H6N2); format: cell-based, Influenza A
HK/X31 (H3N2), group 2 = format: cell-based, Influenza A
H1N1 CA09 virus [2] = test system: H1N1 CA09 virus; parameters: species or system BALB/c mice; settings: mouse, in vivo
[3] = test system: CA09 influenza virus (H1N1); format: cell-based, Influenza A H1N1
PR8 influenza virus = format: cell-based, Influenza A H1N1
[4] = format: physicochemical; settings: pH 7.4
[5] = format: physicochemical; settings: pH 7.4; remark: listed apart in the source
H1N1 CA09 virus [6] = test system: H1N1 CA09 virus; parameters: species or system BALB/c mice; settings: mouse, in vivo; remark: listed apart in the source

## CC[C@H](C)[C@@H]1NC(=O)[C@H](CCC(=O)O)NC(=O)[C@H](C)NC(=O)[C@H](C)NC(=O)[C@H]([C@@H](C)O)NC(=O)[C@H](CCC(N)=O)NC(=O)[C@@H]2CSSC[C@H](NC(=O)[C@H](CC(N)=O)NC(=O)CNC(=O)[C@H](CC(N)=O)NC(=O)[C@H](CC(=O)O)NC(=O)[C@H](C(C)C)NC(=O)[C@H](CCSC)NC(=O)[C@H]([C@@H](C)CC)NC(=O)[C@H](CCCCN)NC(=O)[C@H](C(C)C)NC(=O)[C@H]([C@@H](C)O)NC(=O)[C@H](Cc3ccc(O)cc3)NC(=O)CNC(=O)[C@H](Cc3ccccc3)NC(=O)[C@H](C)NC(=O)[C@H](CCCNC(=N)N)NC(=O)[C@H](Cc3c[nH]c4ccccc34)NC1=O)C(=O)N[C@@H](CCCNC(=N)N)C(=O)N[C@@H](CC(C)C)C(=O)N[C@@H](Cc1c[nH]cn1)C(=O)N[C@@H](C(C)C)C(=O)N[C@H](C(=O)O)CSSC[C@H](N)C(=O)N[C@@H]([C@@H](C)CC)C(=O)N[C@@H](CCC(=O)O)C(=O)N[C@@H](CCC(N)=O)C(=O)N[C@@H](CO)C(=O)N[C@@H](Cc1ccccc1)C(=O)N[C@@H]([C@@H](C)O)C(=O)N[C@@H]([C@@H](C)O)C(=O)N[C@@H](CC(C)C)C(=O)N[C@@H](Cc1ccccc1)C(=O)N[C@@H](C)C(=O)N2 [HB1.6928.2.3] (H-CIEQSFTTLFACQTAAEIWRAFGYTVKIMVDNGNCRLHVC-OH; disulfide 1-40, 12-35; N-terminus and C-terminus assumed)
[1]
  efficiency (EC50) in inhibiting infection, compared with HB36.6 and FI6v3: most efficiently inhibited infection
HK/X31 (H3N2), group 2
  neutralization of H3N2: no neutralization
H1N1 CA09 virus [2]
  protection after intravenous administration: little protection
  protection after repeated administration compared with no prior dosing: remains equally protective
  survival: 100%
[3]
  EC50 for Cal09 (CA09), fold lower than FI6v3 or HB36.6: more than 100 fold
  neutralization of CA09 virus: strongly neutralized
PR8 influenza virus
  neutralization of PR8 virus: strongly neutralized
[4]
  Tm: >95 °C
[5]
  reduction of binding activity after incubation at 80 °C: no detectable loss of binding
H1N1 CA09 virus [6]
  survival: 100%
  weight loss: less than 10%

## HB1.5702.3: chemically synthesized HA binder (TSGVRATSKFAALIAAEIAREFGYTVDVQEKNGEWRVVFD)
trypsin
  trypsin concentration above which gel bands weaken (proteolytic degradation): > 2.86 µM

## HB1.6394.2: chemically synthesized HA binder containing disulfides (CQEYRFTNPFACQIALEILRDFGYACTVQTINGECRVRCC; disulfide (positions not given here))
trypsin
  degradation by trypsin: no degradation

## HB1.6928.2: chemically synthesized HA binder containing disulfides (CIEQSFTTLFACQTAAEIWRAFGYTVKIMVDNGNCRLHVC; disulfide (positions not given here))
trypsin
  degradation by trypsin: no degradation

## TMTSITTSPFAAEIAARIWAEFGYTVRIETRGKTVHVTVD [HB1.6811.3]
[4]
  Tm: 70 °C

## TSGVRATSKFAALIAAEIAREFGYTVDVQEKNGEWRVVFD [HB1.5702.3.3]
[4]
  Tm: 70 °C

## TSRVRATSKFAALIAAEIAREFGYTVDVQEVNGQWEVTFD [HB1.5702.2]
[4]
  Tm: 72 °C
